Values quoted from earlier work as cited in patent US20250249020A1, “COLLOIDALLY STABLE HEME-ALBUMIN COMPLEXES AND METHODS OF MAKING AND USING THEREOF” (Ohio State Innovation Foundation, priority 2022, published 2025).

Target: Hpx
Details: heme binding, background

C=CC1=C(C)c2cc3[n-]c(cc4[n-]c(cc5nc(cc1n2)C(C)=C5C=C)c(C)c4CCC(=O)O)c(CCC(=O)O)c3C.[Fe+2] [heme]
Kd: ~0.01 µM
